Our source for the solubility, LC50 and logP values is ChEMBL document CHEMBL3045524, “Development of a new acaricide, cyflumetofen” (J Pestic Sci, 2012).

Data set [1] in a line: Solubility of the compound in water. Format: physicochemical.
In data set [2] the test system is Tetranychus urticae. The experiment in a line: Acaricidal activity against Tetranychus urticae (two-spotted spider mite) adult. Format: functional.
The test system of data set [3] is Tetranychus urticae. The experiment in a line: Acaricidal activity against Tetranychus urticae (two-spotted spider mite) larvae. In kind it is functional.
Data set [4] in a line: Octanol-water partition co-efficient, log P of the compound. In kind it is physicochemical.
For the next data set, the system named is Panonychus citri. The experiment in a line: Acaricidal activity against Panonychus citri at developmental stages. In kind it is functional.
The test system of a further data set is Tetranychus kanzawai. The data set is described as follows: Acaricidal activity against Tetranychus kanzawai at developmental stages. Format: functional.

In brackets after ≈: the same amount, converted by molar mass. Where only a bound is given, the exact number is not on record here.

As for `COCCOC(=O)C(C#N)(C(=O)c1ccccc1C(F)(F)F)c1ccc(C(C)(C)C)cc1` (racemic) [CYFLUMETOFEN], the concentration in solution in data set [1] (solubility) came to 0.0281 µg/mL (≈ 0.0628 µM). For the same molecule, the LC50 in the data set with Tetranychus urticae [2] was 4.8 µg/mL (≈ 10.7 µM); with Tetranychus urticae [3] it was 0.9 µg/mL (≈ 2.01 µM); in the data set on Panonychus citri, under 5 µg/mL; in the data set on Tetranychus kanzawai it was under 5 µg/mL. In data set [4], this molecule returned a logP of 4.3.
